Experimental data taken from the supplement of paper PMC9663587.

Assays:
Test in all cases: GRmax, 72 h; higher = less effect;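 also: breast cell lines in 384-well plates, nine doses across a 10^4 range, Dye Drop imaging of viable cells vs DMSO and time-zero plates, GR 0 means no net growth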
PDX1206 = test system: PDX1206
MCF10A (GM) = test system: MCF10A (GM)
HCC1500 = test system: HCC1500
MDAMB157 = test system: MDAMB157
HCC1428 = test system: HCC1428

SMILES	GRmax, 72 h (PDX1206) [GR]	GRmax, 72 h (MCF10A (GM)) [GR]	GRmax, 72 h (HCC1500) [GR]	GRmax, 72 h (MDAMB157) [GR]	GRmax, 72 h (HCC1428) [GR]	other results
COc1cccc(OCCCN)c1-c1cc(Nc2cnc(C#N)cn2)n[nH]1	-0.497	0.322	–	–	–	–
Cc1nc(NC(=O)N2CCC[C@H]2C(N)=O)sc1-c1ccnc(C(C)(C)C(F)(F)F)c1 [Alpelisib/BYL719] (max 10 µM)	–	–	0.581	0.492	0.853	–
CC(=O)c1c(C)c2cnc(Nc3ccc(N4CCN(CCOCCOCCOCCNC(=O)COc5cccc6c5C(=O)N(C5CCC(=O)NC5=O)C6=O)CC4)cn3)nc2n(C2CCCC2)c1=O (stereo not drawn) [BSJ-03-123] (max 10 µM)	-0.138	-0.17	–	–	–	–
CC(=O)c1c(C)c2cnc(Nc3ccc(N4CCNCC4)cn3)nc2n(C2CCCC2)c1=O (max 3.162 µM)	–	–	0.574	0.975	0.254	–
CS(=O)(=O)N1CCN(Cc2cc3nc(-c4cccc5[nH]ncc45)nc(N4CCOCC4)c3s2)CC1 [Pictilisib/GDC0941] (max 10 µM)	–	–	-0.132	0.187	0.192	–
Cc1cc(Nc2ncc(Cl)c(Nc3ccccc3S(=O)(=O)C(C)C)n2)c(OC(C)C)cc1C1CCNCC1 [Ceritinib/LDK378] (max 10 µM)	–	–	-0.954	-0.926	-0.867	–
CC(=O)Nc1cccc(-n2c(=O)n(C3CC3)c(=O)c3c(Nc4ccc(I)cc4F)n(C)c(=O)c(C)c32)c1 (max 1 µM)	–	–	0.344	0.406	0.815	–
CC[C@@]1(O)C(=O)OCc2c1cc1n(c2=O)Cc2cc3c(CN(C)C)c(O)ccc3nc2-1 [Topotecan] (max 10 µM)	–	–	-0.801	-0.833	-0.376	–
CCNC(=O)c1noc(-c2cc(C(C)C)c(O)cc2O)c1-c1ccc(CN2CCOCC2)cc1 [Luminespib/NVP-AUY922] (max 1 µM)	–	–	-0.224	-0.049	-0.0043	–
COc1cc2nccc(Oc3ccc(NC(=O)C4(C(=O)Nc5ccc(F)cc5)CC4)cc3)c2cc1OC [Cabozantinib] (max 10 µM)	–	–	0.184	0.149	0.631	–
NC(=O)Nc1cc(-c2cccc(F)c2)sc1C(=O)N[C@H]1CCCNC1 [AZD7762] (max 10 µM)	–	–	-0.256	-0.786	-0.215	–
CN(C)C(=O)c1cc2cnc(Nc3ccc(N4CCNCC4)cn3)nc2n1C1CCCC1 [LEE011/Ribociclib] (max 10 µM)	0.713	0.519	–	–	–	–
COc1cccc2c1C(=O)c1c(O)c3c(c(O)c1C2=O)C[C@@](O)(C(=O)CO)C[C@@H]3O[C@H]1C[C@H](N)[C@H](O)[C@H](C)O1 [Doxorubicin] (max 3.162 µM)	–	–	-0.713	-0.777	-0.74	–
CCc1cnn2c(NCc3ccc[n+]([O-])c3)cc(N3CCCC[C@H]3CCO)nc12 (max 1 µM)	–	–	-0.572	-0.911	-0.672	–
CN(C)C/C=C/C(=O)Nc1ccc(C(=O)N2CCC[C@@H](Nc3ncc(Cl)c(-c4c[nH]c5ccccc45)n3)C2)cc1 [THZ531] (max 1 µM)	-0.312	-0.28	–	–	–	–
CN(C)C/C=C/C(=O)Nc1ccc(O[C@@H]2CCC[C@@H](Nc3ncc(Cl)c(-c4c[nH]c5ccccc45)n3)C2)cc1 [BSJ-01-175] (max 10 µM)	-0.936	-0.356	–	–	–	–
C=CCn1c(=O)c2cnc(Nc3ccc(N4CCN(C)CC4)cc3)nc2n1-c1cccc(C(C)(C)O)n1 [AZD1775] (max 10 µM)	-0.308	0.0319	–	–	–	–
CN1CCN(CCOc2cc(OC3CCOCC3)c3c(Nc4c(Cl)ccc5c4OCO5)ncnc3c2)CC1 [Saracatinib/AZD0530] (max 10 µM)	–	–	-0.197	0.355	0.669	–
N.N.[Cl][Pt][Cl] [Cisplatin] (max 10 µM)	–	–	0.207	0.189	0.122	–
CCOc1cc2ncc(C#N)c(Nc3ccc(OCc4ccccn4)c(Cl)c3)c2cc1NC(=O)/C=C/CN(C)C [Neratinib/HKI272] (max 3.162 µM)	–	–	-0.287	0.117	-0.0412	–
CNC(=O)c1cccc(-c2ccc3c(N4CCOC[C@@H]4C)nc(N4CCOC[C@@H]4C)nc3n2)c1 [AZD2014] (max 10 µM)	0.14	0.211	–	–	–	–
CO[C@@H](C)Cn1c(=O)n(C)c2cnc3ccc(-c4cncc(C(C)(C)O)c4)cc3c21 (max 10 µM)	-0.404	0.0552	–	–	–	–
CCN1CCN(Cc2ccc(Nc3ncc(F)c(-c4cc(F)c5nc(C)n(C(C)C)c5c4)n3)nc2)CC1 (max 10 µM)	–	–	0.22	-0.604	0.0492	–
O=C(c1cc(Cc2n[nH]c(=O)c3ccccc23)ccc1F)N1CCN(C(=O)C2CC2)CC1 [Olaparib/AZD2281] (max 10 µM)	–	–	0.274	0.158	0.118	–
O=C(CCCCCCC(=O)Nc1ccccc1)NO [Vorinostat] (max 10 µM)	–	–	-0.596	-0.413	-0.479	–
Cc1nc(Nc2ncc(C(=O)Nc3c(C)cccc3Cl)s2)cc(N2CCN(CCO)CC2)n1 [Dasatinib] (max 10 µM)	–	–	-0.159	0.0683	0.578	–

SMILES	GRmax, 72 h (PDX1206) [GR]	GRmax, 72 h (MCF10A (GM)) [GR]	GRmax, 72 h (HCC1500) [GR]	GRmax, 72 h (MDAMB157) [GR]	GRmax, 72 h (HCC1428) [GR]	other results
Nc1cc(C(F)(F)F)c(-c2cc(N3CCOCC3)nc(N3CCOCC3)n2)cn1 [Buparlisib/NVP-BKM120] (max 10 µM)	–	–	-0.546	-0.641	-0.265	–
CC(C)Nc1cc(-c2c[nH]c(C(=O)N[C@H](CO)c3cccc(Cl)c3)c2)c(Cl)cn1 [BVD523] (max 10 µM)	0.564	0.225	–	–	–	–
CC[C@@H]1C(=O)N(C)c2cnc(Nc3ccc(C(=O)N[C@H]4CC[C@H](N5CCN(CC6CC6)CC5)CC4)cc3OC)nc2N1C(C)C [Volasertib/BI6727] (max 1 µM)	–	–	0.286	-0.664	-0.0388	–
CNCc1ccc(-c2[nH]c3cc(F)cc4c3c2CCNC4=O)cc1 [Rucaparib] (max 10 µM)	0.586	0.882	–	–	–	–
CC(C)NC[C@@H](C(=O)N1CCN(c2ncnc3c2[C@H](C)C[C@H]3O)CC1)c1ccc(Cl)cc1 [Ipatasertib/GDC0068] (max 10 µM)	–	–	1.08	0.596	0.991	–
Nc1ccc(-c2ccc3ncc4ccc(=O)n(-c5cccc(C(F)(F)F)c5)c4c3c2)cn1 [Torin2] (max 1 µM)	–	–	-0.497	-0.216	-0.0145	–
NC1(C(=O)N[C@@H](CCO)c2ccc(Cl)cc2)CCN(c2nc[nH]c3nccc2-3)CC1 [AZD5363] (max 10 µM)	0.397	0.641	–	–	–	–
CN(C)C/C=C/C(=O)Nc1ccc(C(=O)Nc2cccc(Nc3cc(-c4c[nH]c5ccccc45)ncn3)c2)cc1 [THZ-P1-2] (max 10 µM)	0.857	-0.164	–	–	–	–
O=C1NC(=O)[C@@H](c2cn3c4c(cccc24)CCC3)[C@@H]1c1c[nH]c2ccccc12 [Tivantinib/ARQ197] (max 10 µM)	–	–	-0.33	-0.482	0.0341	–
CN1CC[C@H](c2c(O)cc(O)c3c(=O)cc(-c4ccccc4Cl)oc23)[C@H](O)C1 [Flavopiridol] (max 1 µM)	-0.566	-0.307	–	–	–	–
CN(C)C/C=C/C(=O)Nc1ccc(C(=O)Nc2cccc(Nc3ncc(Cl)c(-c4c[nH]c5ccccc45)n3)c2)cc1 [THZ1] (max 1 µM)	-0.522	-0.267	–	–	–	–
CNc1nc(-c2ccc3c(N)n[nH]c3c2)cc(N2C[C@@H](C(=O)NC3CCCCC3)CC[C@H]2C)n1 (max 10 µM)	0.295	0.857	–	–	–	–
CCC(=O)Nc1ccc(C(=O)Nc2ccc(Nc3ncc4c(n3)N(C)c3ccc(C)cc3C(=O)N4C)cc2)cc1 [FMF-03-145-1]	0.128	0.0984	–	–	–	–
COc1cc([C@@H]2c3cc4c(cc3[C@@H](O[C@@H]3O[C@@H]5CO[C@@H](C)O[C@H]5[C@H](O)[C@H]3O)[C@H]3COC(=O)[C@H]23)OCO4)cc(OC)c1O [Etoposide] (max 10 µM)	–	–	-0.0766	-0.434	-0.032	–
CC(C)n1nc(-c2ccc3oc(N)nc3c2)c2c(N)ncnc21 [INK128/MLN0128] (max 3.162 µM)	–	–	-0.469	-0.0331	-0.0001	–
O=C1NC(=NCc2cccs2)SC1=Cc1ccc2ncccc2c1 [R0-3306] (max 10 µM)	0.0387	-0.0351	–	–	–	–
COc1cc2c(Oc3ccc4[nH]c(C)cc4c3F)ncnc2cc1OCCCN1CCCC1 [Cediranib/AZD2171] (max 10 µM)	–	–	-0.808	-0.585	-0.55	–
Cc1c(N)nc([C@H](CC(N)=O)NC[C@H](N)C(N)=O)nc1C(=O)N[C@H](C(=O)N[C@H](C)[C@@H](O)[C@H](C)C(=O)N[C@H](C(=O)NCCc1nc(-c2nc(C(=O)NCCC[S+](C)C)cs2)cs1)[C@@H](C)O)[C@@H](OC1OC(CO)C(O)C(O)C1OC1OC(CO)C(O)C(OC(N)=O)C1O)c1cnc[nH]1 (stereo partly drawn) [Bleomycin] (max 10 µM)	–	–	–	–	–	GRmax, 72 h (HCC1500; main component drawn): 0.174 GR; GRmax, 72 h (MDAMB157; main component drawn): -0.281 GR; GRmax, 72 h (HCC1428; main component drawn): 0.217 GR
CN(C)CC[C@H](CSc1ccccc1)Nc1ccc(S(=O)(=O)NC(=O)c2ccc(N3CCN(Cc4ccccc4-c4ccc(Cl)cc4)CC3)cc2)cc1[N+](=O)[O-] [ABT-737] (max 10 µM)	–	–	-0.736	0.201	0.243	–
COc1cc(N2CCN(C)CC2)ccc1Nc1ncc2c(n1)N(C)c1ccccc1C(=O)N2CC(F)(F)F [FMF-03-146-1]	0.966	0.977	–	–	–	–
CCc1cncnc1N1CCN(Cc2nc3ccc(C(F)(F)F)cc3[nH]2)CC1 (max 10 µM)	–	–	0.0495	0.11	0.864	–
CO[C@H]1C[C@@H]2CC[C@@H](C)[C@@](O)(O2)C(=O)C(=O)N2CCCC[C@H]2C(=O)O[C@H]([C@H](C)C[C@@H]2CC[C@@H](OCCO)[C@H](OC)C2)CC(=O)[C@H](C)/C=C(\C)[C@@H](O)[C@@H](OC)C(=O)[C@H](C)C[C@H](C)/C=C/C=C/C=C/1C [Everolimus] (max 10 µM)	–	–	-0.31	0.481	0.346	–
CC(=O)O[C@H]1C(=O)[C@@]2(C)[C@H]([C@H](OC(=O)c3ccccc3)[C@]3(O)C[C@H](OC(=O)[C@H](O)[C@@H](NC(=O)c4ccccc4)c4ccccc4)C(C)=C1C3(C)C)[C@]1(OC(C)=O)CO[C@@H]1C[C@@H]2O [Paclitaxel] (max 1 µM)	–	–	-0.0589	-0.67	0.0645	–
Cc1nc(-c2cn3c(n2)-c2ccc(-c4cnn(C(C)(C)C(N)=O)c4)cc2OCC3)n(C(C)C)n1 [Taselisib/GDC0032] (max 10 µM)	–	–	-0.233	0.211	0.173	–
Cc1nn(C)c(COc2ccc(N3CCN(S(=O)(=O)N(C)C)CC3)cc2)c1-c1cccc2c(CCCOc3cccc4ccccc34)c(C(=O)O)n(CCN3CCOCC3)c12 (max 10 µM)	–	–	0.872	0.788	0.816	–
Cc1cc(C(C)Nc2ccccc2)c2nc(N3CCOCC3)cc(=O)n2c1 (stereo not drawn) [TGX221] (max 10 µM)	–	–	0.503	0.824	0.769	–
